Values after ≈ are worked out from the molar mass of the structure shown.
Each compound was assayed on Enterococcus faecalis ATCC 29212 (assay: MIC against Enterococcus faecalis ATCC 29212). Settings: ATCC29212; Enterococcus faecalis ATCC 29212; read-out: MICs against Enterococcus faecalis, Activity.
Type: cell-based
Outline: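 MIC measured by broth microdilution or agar dilution following CLSI guidelines (M7-A7 for aerobes, M11-A6 for anaerobes).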

| SMILES | MIC |
| --- | --- |
| CCNC(=O)Nc1nc2cc(-c3ccn(CCO)c(=O)c3)cc(-c3ccccn3)c2s1 [Example 57, 1-Ethyl-3-{5-[1-(2-hydroxy-ethyl)-2-oxo-1,2-dihydro-pyridin-4-yl]-7-pyridin-2-yl-benzothiazol-2-yl}-urea] | 0.25 to 1 µg/mL (≈ 0.574 to 2.3 µM) |
| CCNC(=O)Nc1nc2cc(-n3ccnc3)cc(-c3ccccn3)c2s1 [Example 142, 1-Ethyl-3-(5-imidazol-1-yl-7-pyridin-2-yl-benzothiazol-2-yl)-urea] | < 0.25 µg/mL |
| CCNC(=O)Nc1nc2cc(-c3cccnc3)cc(-c3cnc(N)cn3)c2s1 [Example 131, 1-[7-(5-Amino-pyrazin-2-yl)-5-pyridin-3-yl-benzothiazol-2-yl]-3-ethyl-urea] | < 0.25 µg/mL |
| CCNC(=O)Nc1nc2cc(-c3cncc(N4CCN(C)CC4)c3)cc(-c3ccccn3)c2s1 [Example 62, 1-Ethyl-3-{5-[5-(4-methyl-piperazin-1-yl)-pyridin-3-yl]-7-pyridin-2-yl-benzothiazol-2-yl}-urea] | 0.25 to 1 µg/mL (≈ 0.528 to 2.11 µM) |
| CCNC(=O)Nc1nc2cc(-c3ccc(NC(C)=O)nc3)cc(-c3nccc4cc[nH]c34)c2s1 [Example 137, N-{5-[2-(3-Ethyl-ureido)-7-(1H-pyrrolo[2,3-c]pyridin-7-yl)-benzothiazol-5-yl]-pyridin-2-yl}-acetamide] | 0.25 to 1 µg/mL (≈ 0.53 to 2.12 µM) |
| CCNC(=O)Nc1nc2cc(-c3cccnc3)cc(-c3cc(N)ccn3)c2s1 [Example 100, 1-[7-(4-Amino-pyridin-2-yl)-5-pyridin-3-yl-benzothiazol-2-yl]-3-ethyl-urea] | < 0.25 µg/mL |
| CCNC(=O)Nc1nc2cc(-c3ccc4nccn4c3)cc(-c3cccnc3)c2s1 [Example 22, 1-Ethyl-3-(5-imidazo[1,2-a]pyridin-6-yl-7-pyridin-3-yl-benzothiazol-2-yl)-urea] | 0.25 to 1 µg/mL (≈ 0.603 to 2.41 µM) |
| CCNC(=O)Nc1nc2cc(-c3cnc(N)nc3)cc(-c3ccccn3)c2s1 [Example 154, 1-[5-(2-Amino-pyrimidin-5-yl)-7-pyridin-2-yl-benzothiazol-2-yl]-3-ethyl-urea] | < 0.25 µg/mL |
| CCNC(=O)Nc1nc2cc(-c3ccnc(OC)c3)cc(-c3ccccn3)c2s1 [Example 40, 1-Ethyl-3-[5-(2-methoxy-pyridin-4-yl)-7-pyridin-2-yl-benzothiazol-2-yl]-urea] | 0.25 to 1 µg/mL (≈ 0.617 to 2.47 µM) |
| CCNC(=O)Nc1nc2cc(-c3ccc(CN(CCOC)CCOC)nc3)cc(-c3ccccn3)c2s1 [Example 60, 1-[5-(6-{[Bis-(2-methoxy-ethyl)-amino]-methyl}-pyridin-3-yl)-7-pyridin-2-yl-benzothiazol-2-yl]-3-ethyl-urea] | 0.25 to 1 µg/mL (≈ 0.48 to 1.92 µM) |
| CCNC(=O)Nc1nc2cc(-c3cccnc3)cc(-c3ncccc3OC)c2s1 [Example 118, 1-Ethyl-3-[7-(3-methoxy-pyridin-2-yl)-5-pyridin-3-yl-benzothiazol-2-yl]-urea] | < 0.25 µg/mL |
| CCNC(=O)Nc1nc2cc(-c3ccc(CC(=O)OC)nc3)cc(-c3ccccn3)c2s1 [Example 69, {5-[2-(3-Ethyl-ureido)-7-pyridin-2-yl-benzothiazol-5-yl]-pyridin-2-yl}-acetic acid methyl ester] | < 0.25 µg/mL |
| CCNC(=O)Nc1nc2cc(-c3ccc(C(=O)OC)nc3)cc(-c3cccnc3)c2s1 [Example 26, 5-[2-(3-Ethyl-ureido)-7-pyridin-3-yl-benzothiazol-5-yl]-pyridine-2-carboxylic acid methyl ester] | 0.25 to 1 µg/mL (≈ 0.577 to 2.31 µM) |
| CCNC(=O)Nc1nc2cc(-c3cccnc3)cc(-c3cc(C(N)=O)ccn3)c2s1 [Example 108, 2-[2-(3-Ethyl-ureido)-5-pyridin-3-yl-benzothiazol-7-yl]-isonicotinamide] | 0.25 to 1 µg/mL (≈ 0.597 to 2.39 µM) |
| CCNC(=O)Nc1nc2cc(-c3cnc(N(C)C)nc3)cc(-c3cccnc3)c2s1 [Example 25, 1-[5-(2-Dimethylamino-pyrimidin-5-yl)-7-pyridin-3-yl-benzothiazol-2-yl]-3-ethyl-urea] | 0.25 to 1 µg/mL (≈ 0.596 to 2.38 µM) |
| CCNC(=O)Nc1nc2cc(-c3cccnc3)cc(-c3cnn(C)c3)c2s1 [Example 83, 1-Ethyl-3-[7-(1-methyl-1H-pyrazol-4-yl)-5-pyridin-3-yl-benzothiazol-2-yl]-urea] | 0.25 to 1 µg/mL (≈ 0.661 to 2.64 µM) |
| CCNC(=O)Nc1nc2cc(-c3ccn(C)c(=O)c3)cc(-c3cccnc3)c2s1 [Example 47, 1-Ethyl-3-[5-(1-methyl-2-oxo-1,2-dihydro-pyridin-4-yl)-7-pyridin-3-yl-benzothiazol-2-yl]-urea] | 0.25 to 1 µg/mL (≈ 0.617 to 2.47 µM) |
| CCNC(=O)Nc1nc2cc(-c3ccc(N4CCN(C)CC4)nc3)cc(-c3cccnc3)c2s1 [Example 23, 1-Ethyl-3-{5-[6-(4-methyl-piperazin-1-yl)-pyridin-3-yl]-7-pyridin-3-yl-benzothiazol-2-yl}-urea] | 2 to 16 µg/mL (≈ 4.22 to 33.8 µM) |
| CCNC(=O)Nc1nc2cc(-c3cccnc3)cc(-c3cccc(C)n3)c2s1 [Example 177, 1-Ethyl-3-[7-(6-methyl-pyridin-2-yl)-5-pyridin-3-yl-benzothiazol-2-yl]-urea] | < 0.25 µg/mL |
| CCNC(=O)Nc1nc2cc(-c3ccc(NC(C)=O)nc3)cc(-c3ccc(NC(C)=O)nc3)c2s1 [Example 148, N-{5-[7-(6-Acetylamino-pyridin-3-yl)-2-(3-ethyl-ureido)-benzothiazol-5-yl]-pyridin-2-yl}-acetamide] | 0.25 to 1 µg/mL (≈ 0.511 to 2.04 µM) |
| CCNC(=O)Nc1nc2cc(-c3cccnc3)cc(-c3cc(C#N)ccn3)c2s1 [Example 119, 1-[7-(4-Cyano-pyridin-2-yl)-5-pyridin-3-yl-benzothiazol-2-yl]-3-ethyl-urea] | < 0.25 µg/mL |
| CCNC(=O)Nc1nc2cc(-c3ccc(CCO)nc3)cc(-c3ccccn3)c2s1 [Example 58, 1-Ethyl-3-{5-[6-(2-hydroxy-ethyl)-pyridin-3-yl]-7-pyridin-2-yl-benzothiazol-2-yl}-urea] | < 0.25 µg/mL |
| CCNC(=O)Nc1nc2cc(-c3cnc4c(c3)CCC(=O)N4)cc(-c3ccccn3)c2s1 [Example 71, 1-Ethyl-3-[5-(7-oxo-5,6,7,8-tetrahydro-[1,8]naphthyridin-3-yl)-7-pyridin-2-yl-benzothiazol-2-yl]-urea] | < 0.25 µg/mL |

Continued, values first:

| MIC | SMILES |
| --- | --- |
| < 0.25 µg/mL | CCNC(=O)Nc1nc2cc(-c3ccc(CN4CCOCC4)nc3)cc(-c3ccccn3)c2s1 [Example 59, 1-Ethyl-3-[5-(6-morpholin-4-ylmethyl-pyridin-3-yl)-7-pyridin-2-yl-benzothiazol-2-yl]-urea] |
| 0.25 to 1 µg/mL (≈ 0.637 to 2.55 µM) | CCNC(=O)Nc1nc2cc(-c3cccnc3)cc(-c3ccccc3F)c2s1 [Example 75, 1-Ethyl-3-[7-(2-fluoro-phenyl)-5-pyridin-3-yl-benzothiazol-2-yl]-urea] |
| 0.25 to 1 µg/mL (≈ 0.597 to 2.39 µM) | CCNC(=O)Nc1nc2cc(-c3cccnc3)cc(-c3ccc(C(N)=O)cn3)c2s1 [Example 98, 6-[2-(3-Ethyl-ureido)-5-pyridin-3-yl-benzothiazol-7-yl]-nicotinamide] |
| < 0.25 µg/mL | CCNC(=O)Nc1nc2cc(-c3cccnc3)cc(-c3ccc(Cl)cn3)c2s1 [Example 130, 1-[7-(5-Chloro-pyridin-2-yl)-5-pyridin-3-yl-benzothiazol-2-yl]-3-ethyl-urea] |
| 2 to 16 µg/mL (≈ 4.19 to 33.5 µM) | CCNC(=O)Nc1nc2cc(-c3cccnc3)cc(-c3cnn(CCN4CCOCC4)c3)c2s1 [Example 81, 1-Ethyl-3-{7-[1-(2-morpholin-4-yl-ethyl)-1H-pyrazol-4-yl]-5-pyridin-3-yl-benzothiazol-2-yl}-urea] |
| 2 to 16 µg/mL (≈ 5.2 to 41.6 µM) | CCNC(=O)Nc1nc2cc(-c3cccnc3)cc(NC(=O)NCC)c2s1 [Example 150, 1-Ethyl-3-[2-(3-ethyl-ureido)-5-pyridin-3-yl-benzothiazol-7-yl]-urea] |
| < 0.25 µg/mL | CCNC(=O)Nc1nc2cc(-c3cccnc3)cc(-c3ccc(N)cn3)c2s1 [Example 99, 1-[7-(5-Amino-pyridin-2-yl)-5-pyridin-3-yl-benzothiazol-2-yl]-3-ethyl-urea] |
| < 0.25 µg/mL | CCNC(=O)Nc1nc2cc(-c3cccnc3)cc(-c3ccc4cc[nH]c4n3)c2s1 [Example 111, 1-Ethyl-3-[5-pyridin-3-yl-7-(1H-pyrrolo[2,3-b]pyridin-6-yl)-benzothiazol-2-yl]-urea] |
| 2 to 16 µg/mL (≈ 5.1 to 40.8 µM) | CCNC(=O)Nc1nc2cc(-c3cnccn3)cc(-c3cnc(N)nc3)c2s1 [Example 73, 1-[7-(2-Amino-pyrimidin-5-yl)-5-pyrazin-2-yl-benzothiazol-2-yl]-3-ethyl-urea] |
| 0.25 to 1 µg/mL (≈ 0.662 to 2.65 µM) | CCNC(=O)Nc1nc2cc(-c3cccnc3)cc(-c3cccn3C)c2s1 [Example 11, 1-Ethyl-3-[7-(1-methyl-1H-pyrrol-2-yl)-5-pyridin-3-yl-benzothiazol-2-yl]-urea] |
| < 0.25 µg/mL | CCNC(=O)Nc1nc2cc(-c3cccnc3)cc(-c3cncs3)c2s1 [Example 161, 1-Ethyl-3-(5-pyridin-3-yl-7-thiazol-5-yl-benzothiazol-2-yl)-urea] |
| 0.25 to 1 µg/mL (≈ 0.618 to 2.47 µM) | CCNC(=O)Nc1nc2cc(-c3cccnc3)cc(-c3ccc(CN)cn3)c2s1 [Example 97, 1-[7-(5-Aminomethyl-pyridin-2-yl)-5-pyridin-3-yl-benzothiazol-2-yl]-3-ethyl-urea] |
| 0.25 to 1 µg/mL (≈ 0.642 to 2.57 µM) | CCNC(=O)Nc1nc2cc(-c3cnccc3C)cc(-c3ccccn3)c2s1 [Example 39, 1-Ethyl-3-[5-(4-methyl-pyridin-3-yl)-7-pyridin-2-yl-benzothiazol-2-yl]-urea] |
| 2 to 16 µg/mL (≈ 6.38 to 51.1 µM) | CCNC(=O)Nc1nc2cc(-c3cccnc3)cc(N)c2s1 [Example 149, 1-(7-Amino-5-pyridin-3-yl-benzothiazol-2-yl)-3-ethyl-urea] |
| 0.25 to 1 µg/mL (≈ 0.495 to 1.98 µM) | CCNC(=O)Nc1nc2cc(-c3ccn(CCN4CCOCC4)c(=O)c3)cc(-c3ccccn3)c2s1 [Example 63, 1-Ethyl-3-{5-[1-(2-morpholin-4-yl-ethyl)-2-oxo-1,2-dihydro-pyridin-4-yl]-7-pyridin-2-yl-benzothiazol-2-yl}-urea] |
| 2 to 16 µg/mL (≈ 5.11 to 40.9 µM) | CCNC(=O)Nc1nc2cc(-n3ccccc3=O)cc(-c3cccnc3)c2s1 [Example 141, 1-Ethyl-3-[5-(2-oxo-2H-pyridin-1-yl)-7-pyridin-3-yl-benzothiazol-2-yl]-urea] |
| 2 to 16 µg/mL (≈ 5.3 to 42.4 µM) | CCNC(=O)Nc1nc2cc(-c3cncnc3)cc(-c3cncnc3)c2s1 [Example 147, 1-(5,7-Di-pyrimidin-5-yl-benzothiazol-2-yl)-3-ethyl-urea] |
| < 0.25 µg/mL | CCNC(=O)Nc1nc2cc(-c3cccnc3)cc(-c3nccs3)c2s1 [Example 92, 1-Ethyl-3-(5-pyridin-3-yl-7-thiazol-2-yl-benzothiazol-2-yl)-urea] |
